Assay results as given in patent publication US5547978A, “Derivatives of pyrrolidin-2-ylcarbonylheterocyclic compounds” (priority 1994, dated 1996).
Read-outs that look alike come from different tables or passages of the source.

Tests used:
prolyl endopeptidase = molecular target: T1, prolyl endopeptidase (Sus scrofa, UniProt P23687); assay: Prolyl endopeptidase-inhibitory activity in vitro (porcine kidney enzyme, Z-Gly-Pro-p-nitroanilide substrate); format: biochemical
T1 construct: porcine kidney enzyme which was prepared according to methods of Walter and Yoshimoto et al; from tissue; host or cells: porcine kidney
T1 sequence (P23687 whole entry): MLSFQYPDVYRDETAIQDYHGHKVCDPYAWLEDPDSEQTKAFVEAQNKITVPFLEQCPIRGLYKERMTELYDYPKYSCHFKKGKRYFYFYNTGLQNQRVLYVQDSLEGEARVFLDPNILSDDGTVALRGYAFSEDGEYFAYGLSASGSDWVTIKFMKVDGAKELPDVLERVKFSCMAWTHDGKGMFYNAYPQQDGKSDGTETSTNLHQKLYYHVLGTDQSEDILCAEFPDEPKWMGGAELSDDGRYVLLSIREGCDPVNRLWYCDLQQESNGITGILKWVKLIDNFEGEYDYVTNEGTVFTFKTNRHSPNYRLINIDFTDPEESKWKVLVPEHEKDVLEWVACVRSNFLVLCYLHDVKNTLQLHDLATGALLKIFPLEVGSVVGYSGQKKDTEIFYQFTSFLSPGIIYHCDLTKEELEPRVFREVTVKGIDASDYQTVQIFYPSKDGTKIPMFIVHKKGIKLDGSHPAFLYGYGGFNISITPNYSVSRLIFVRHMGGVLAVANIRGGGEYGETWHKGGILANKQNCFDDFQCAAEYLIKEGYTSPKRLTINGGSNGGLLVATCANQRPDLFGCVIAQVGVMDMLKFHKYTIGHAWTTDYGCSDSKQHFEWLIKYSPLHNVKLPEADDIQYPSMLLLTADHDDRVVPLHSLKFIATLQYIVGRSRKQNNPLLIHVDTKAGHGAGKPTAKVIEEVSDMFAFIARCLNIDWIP
Method: A test compound (2 mg) was dissolved in DMSO (2 ml) and diluted to appropriate concentrations with DMSO. Z-Gly-Pro-p-nitroanilide (8 mg), a substrate was dissolved in dioxane (5 ml), water (27 ml) and 0.2 M phosphate buffer (pH 7.8, 40 ml). The substrate solution ([…]) was mixed with an inhibitor solution (3 ml) and followed by addition of above mentioned porcine kidney enzyme solution ([…]). Immediately after the mixing the UV absorbance at 405 nm was detected. The mixture was incubated at 37° C. for 20 min. and the UV absorbance was checked. A standard curve of absorbance (OD) vs. p-nitroaniline concentration was used to relate the absorbance to amount of substrate hydrolyzed. […] The inhibiting activity was obtained following the equation below. The IC50 value was estimated from the inhibitor concentration vs. inhibitory activity curve.
The percent inhibitory activity (%)=(ΔODc -ΔODs)/ΔODc ×100
ΔODs : ΔOD for test sample

[1] = system: brain prolyl endopeptidase; assay: Ex vivo prolyl endopeptidase inhibition in brain after oral administration; conditions: rat, p.o.; for PEP Actively in brain (% of control): 10 mg/kg
Method: Ex vivo enzyme inhibition studies were performed to assess the degree of CNS availability and prolyl endpeptidase inhibition after oral administration. Compounds were dissolved in a minimal mount of ethanol (about 10% total volume) and made up to the appropriate volume with 1% polyoxyether sorbitan monooleate (Tween 80). Rats were dosed p.o. and at the appropriate times killed. The brains were removed, homogenised in the ice-cooled assay buffer, and centrifugated.

Compound | IC50 (prolyl endopeptidase; porcine kidney enzyme, pH 7.8, 37° C., 20 min, read-out: IC50 (converted)) [nM] | PEP Actively in brain (% of control) ([1]; 0.25 hr) | PEP Actively in brain (% of control) ([1]; 0.5 hr) | PEP Actively in brain (% of control) ([1]; 1 hr) | PEP Actively in brain (% of control) ([1]; 2 hr) | PEP Actively in brain (% of control) ([1]; 4 hr) | PEP Actively in brain (% of control) ([1]; 6 hr) | brain prolyl endopeptidase inhibition (potency compared with SUAM-1221) ([1]; ex vivo, in words) | duration of action on brain prolyl endopeptidase (compared with SUAM-1221) ([1]; ex vivo, in words) | IC50 (prolyl endopeptidase) [nM]
O=C(c1nc2ccccc2s1)[C@@H]1CCCN1C(=O)[C@@H]1CCCN1C(=O)CCCc1ccccc1 [Example 1, 2-[1-{1-(4-Phenylbutanoyl)pyrrolidin-2(S)-ylcarbonyl}pyrrolidin-2(S)-ylcarbonyl]benzothiazole] | 2.14 | 42 % of control | 21 % of control | 32 % of control | 47 % of control | 69 % of control | 98 % of control | more potent than SUAM-1221 | longer duration of action | 
O=C(C1=NCCS1)[C@@H]1CCCN1C(=O)[C@@H]1CCCN1C(=O)CCCc1ccccc1 [Example 41, 2-[1-{1-(4-Phenylbutanoyl)pyrrolidin-2(S)-ylcarbonyl}pyrrolidin-2(S)-ylcarbonyl]thiazoline] |  |  |  |  |  |  |  |  |  | 3.98
